Results as given in patent US20090170846A1, “INHIBITORS OF THE HIV INTEGRASE ENZYME” (Pfizer Inc, priority 2005, published 2009).
Like-named read-outs stand apart in the source and are kept apart here.

Assays:
[1] = system: RF strain of HIV-1 in CEM-SS cells; assay: HIV-1 cell protection assay (XTT dye reduction); format: cell-based
Protocol: HIV-1 Cell Protection Assay
The antiviral activities of potential modulator compounds (test compounds) were determined in HIV-1 cell protection assays using the RF strain of HIV-1, CEM-SS cells, and the XTT dye reduction method (Weislow, O, S. et al., J. Natl. Cancer Inst 81: 577-586 (1989)). Subject cells were infected with HIV-1 RF virus at an moi of to affect about a 90% kill (for example, an moi in the range of from about 0.025 to about 0.819) or mock infected with medium only and added at 2×10^4 cells per well, with the addition of approximately 200 μL of medium, into 96 well plates containing half-log dilutions of test compounds. Six days later, 50 μl of XTT solution (1 mg/ml XTT tetrazolium and 20 nM phenazine methosulfate) were added to the wells and the plates were reincubated for four hours. Viability, as determined by the amount of XTT formazan produced, was quantified spectrophotometrically by absorbance at 450 nm.
Data from CPE assays were expressed as the percent of formazan produced in compound-treated cells compared to formazan produced in wells of uninfected, compound-free cells. The fifty percent effective concentration (EC50) was calculated as the concentration of compound that affected an increase in the percentage of formazan production in infected, compound-treated cells to 50% of that produced by uninfected, compound-free cells. The 50% cytotoxicity concentration (CC50) was calculated as the concentration of compound that decreased the percentage of formazan produced in uninfected, compound-treated cells to 50% of that produced in uninfected, compound-free cells. The therapeutic index was calculated by dividing the cytotoxicity (CC50) by the antiviral activity (EC50).

[2] = biological target: T1, Full-length wild type HIV-1 integrase (SF1) (Human immunodeficiency virus type 1 group M subtype B, UniProt P04585); assay: Integrase strand-transfer scintillation proximity assay; format: biochemical; settings: integrase strand-transfer SPA; read-out: IC50
T1 construct: made in house; host or cells: E. coli BL21 (DE3)
Description: Integrase Strand-Transfer Scintillation Proximity Assay
Oligonucleotides: Oligonucleotide #1-5′-(biotin)[…]-3′ (SEQ ID NO: 1) and oligonucleotide #2-5′-[…]-3′ (SEQ ID NO: 2), were synthesized by TriLink BioTechnologies, Inc. (San Diego, Calif.). The annealed product represents preprocessed viral ds-DNA derived from the LTR U5 sequence of the viral genome. A ds-DNA control to test for non-specific interactions was made using a 3′ di-deoxy derivative of oligonucleotide #1 annealed to oligonucleotide #2. The CA overhang at the 5′ end of the non-biotinylated strand of the ds-DNA was created artificially by using a complimentary DNA oligonucleotide shortened by 2 base pairs. This configuration eliminates the requisite 3′ processing step of the integrase enzyme prior to the strand-transfer mechanism.
Host ds-DNA was prepared as an unlabeled and [^3H]-thymidine labeled product from annealed oligonucleotide #3-5-[…]-3′ (SEQ ID NO: 3), and oligonucleotide #4-1-5′-[…]-3′ (SEQ ID NO: 4), both synthesized by TriLink BioTechnologies, Inc. (San Diego, Calif.). The annealed product had overhanging 3′ ends of poly(dA). Host DNA was custom radiolabeled by PerkinElmer Life Sciences Inc. (Boston, Mass.) using an enzymatic method with a 12/1 ratio of [methyl-^3H]dTTP/cold ds-DNA to yield 5′-blunt end ds-DNA with a specific activity of >900 Ci/mmol. The radiolabeled product was purified using a NENSORB cartridge and stored in stabilized aqueous solution (PerkinElmer). The final radiolabeled product had six [^3H]-thymidine nucleotides at both 5′ ends of the host ds-DNA.
Reagents: Streptavidin-coated polyvinyltoluene (PVT) SPA beads were purchased from Amersham Biosciences (Piscataway, N.J.). Cesium chloride was purchased from Shelton Scientific, Inc. (Shelton, Conn.). White, polystyrene, flat-bottom, non-binding surface, 96-well plates were purchased from Corning. All other buffer components were purchased from Sigma (St. Louis, Mo.) unless otherwise indicated.
Enzyme Construction Full-length wild type HIV-1 integrase (SF1) sequence (amino acids 1-289) was constructed in a pET24a vector (Novagen, Madison, Wis.). The construct was confirmed through DNA sequencing.
Enzyme Purification Full length wild-type HIV Integrase was expressed in E. coli BL21 (DE3) cells and induced with 1 mM isopropyl-1 thio-β-D-galactopyranoside (IPTG) when cells reached an optical density between 0.8-1.0 at 600 nm. Cells were lysed by microfluidation in 50 mM HEPES pH 7.0, 75 mM NaCl, 5 mM DTT, 1 mM 4-(2-Aminoethyl)benzenesulfonylfluoride HCl (AEBSF). Lysate was then centrifuged 20 minutes at 11 k rpm in GSA rotor in Sorvall RC-5B at 4° C. Supernant was discarded and pellet resuspended in 50 mM HEPES pH 7.0, 750 mM NaCl, 5 mM DTT, 1 mM AEBSF and homogenized in a 40 mL Dounce homogenizer for 20 minutes on ice. Homogenate was then centrifuged 20 minutes at 11 k rpm in SS34 rotor in Sorvall RC-5B at 4° C. Supernant was discarded and pellet resuspended in 50 mM HEPES pH 7.0, 750 mM NaCl, 25 mM CHAPS, 5 mM DTT, 1 mM AEBSF. Preparation was then centrifuged 20 minutes at 11 k rpm in SS34 rotor in Sorvall RC-5B at 4° C.
Supernant was then diluted 1:1 with 50 mM HEPES pH 7.0, 25 mM CHAPS, 1 mM DTT, 1 mM AEBSF and loaded onto a Q-Sepharose column pre-equilibrated with 50 mM HEPES, pH 7.0, 375 mM NaCl, 25 mM CHAPS, 1 mM DTT, 1 mM AEBSF. The flow through peak was collected and NaCl diluted to 0.1 M with 50 mM HEPES pH 7.0, 25 mM CHAPS, 1 mM DTT, 0.5 mM AEBSF and loaded onto a SP-Sepharose column pre-equilibrated with 50 mM HEPES pH 7.0, 100 mM NaCl, 25 mM CHAPS, 1 mM DTT, 0.5 mM AEBSF. After washing the column with the equilibration buffer, a 100 to 400 mM NaCl gradient was run. The eluted integrase was concentrated and run on a S-300 gel diffusion column using 50 mM HEPES pH 7.0, 500 mM NaCl, 25 mM CHAPS, 1 mM DTT, 0.5 mM AEBSF. The peak from this column was concentrated to 0.76 mg/mL and stored at −70° C. and later used for strand transfer assays. […]

[3] = Human immunodeficiency virus 1, CEM-SS, 144 h
[4] = Human immunodeficiency virus 1, 144 h, HIV-1 RF, CEM-SS cells, XTT, six days, read-out: EC50

SMILES | EC50 [1, 3] [nM] | IC50 [2] [nM] | EC50 [1, 4] [nM]
CN(O)C(=O)c1cc2c(C(=O)NC[C@@H]3CCCO3)cn(Cc3ccc(F)cc3)c2cn1 [Example 43, 1-(4-fluorobenzyl)-N5-hydroxy-N5-methyl-N3-[(2S)-tetrahydrofuran-2-ylmethyl]-1H-pyrrolo[2,3-c]pyridine-3,5-dicarboxamide] | 80 | 221 | 
Cc1c(CNC(=O)c2cn(Cc3ccc(F)cc3)c3cnc(C(=O)N(C)O)cc23)cnn1C [Example 17, N~3~-[(1,5-dimethyl-1H-pyrazol-4-yl)methyl]-1-(4-fluorobenzyl)-N~5~- hydroxy-N~5~-methyl-1H-pyrrolo[2,3-c]pyridine-3,5-dicarboxamide] | 110 | 168 | 
CONC(=O)c1cc2c(C(=O)NCC(F)F)cn(Cc3ccc(F)cc3)c2cn1 [Example 48, N3-(2,2-difluoroethyl)-1-(4-fluorobenzyl)-N5-methoxy-1H-pyrrolo[2,3-c]pyridine-3,5-dicarboxamide] | 29 | 510 | 
CONC(=O)c1cc2c(C(=O)NCc3cnn(C)c3C)cn(Cc3ccc(F)cc3)c2cn1 [Example 11, N~3~-[(1,5-dimethyl-1H-pyrazol-4-yl)methyl]-1-(4-fluorobenzyl)-N~5~- methoxy-1H-pyrrolo[2,3-c]pyridine-3,5-dicarboxamide] | 67 | 530 | 
CONC(=O)c1cc2c(C(=O)N3CCC[C@@H]3CO)cn(Cc3ccc(F)cc3)c2cn1 [Example 46] | 56 | 895 | 
CONC(=O)c1cc2c(C(=O)NCCCN3CCCC3=O)cn(Cc3ccc(F)cc3)c2cn1 [Example 9, 1-(4-fluorobenzyl)-N~5~- methoxy-N~3~-[3-(2-oxopyrrolidin-1-yl)propyl]-1H-pyrrolo[2,3-c]pyridine-3,5-dicarboxamide] | 42 | 267 | 
CONC(=O)c1cc2c(S(=O)(=O)N3CCNC(=O)C3)cn(Cc3ccc(F)cc3F)c2cn1 [Example 39, 1-(2,4-difluorobenzyl)-N-methoxy-3-[(3-oxopiperazin-1-yl)sulfonyl]-1H-pyrrolo[2,3-c]pyridine-5-carboxamide] |  | 299 | 210
O=C(CC(NC(=O)c1cn(Cc2ccc(F)cc2)c2cnc(C(=O)NO)cc12)C1CC1)NC1CC1 (stereo not drawn) [Example 24, N~3~-[1-cyclopropyl-3-(cyclopropylamino)-3-oxopropyl]-1-(4-fluorobenzyl)-N~5~- hydroxy-1H-pyrrolo[2,3-c]pyridine-3,5-dicarboxamide] | 380 | 16 | 
O=C1CN(S(=O)(=O)c2cn(Cc3ccc(F)cc3F)c3cnc(C(=O)NO)cc23)CCN1 [Example 38, 1-(2,4-difluorobenzyl)-N-hydroxy-3-[(3-oxopiperazin-1-yl)sulfonyl]-1H-pyrrolo[2,3-c]pyridine-5-carboxamide] |  | 265 | 8000
O=C(NO)c1cc2c(C(=O)N3CCC[C@H]3CO)cn(Cc3ccc(F)cc3)c2cn1 [Example 23, 1-(4-fluorobenzyl)-N-hydroxy-3-{[(2S)-2-(hydroxymethyl)pyrrolidin-1-yl]carbonyl}-1H-pyrrolo[2,3-c]pyridine-5-carboxamide] | 57 | 75 | 
CONC(=O)c1cc2c(C(=O)N3CCC(N(C)C)C3)cn(Cc3ccc(F)cc3)c2cn1 (stereo not drawn) [Example 12, 3-{[3-(dimethylamino)pyrrolidin-1-yl]carbonyl)-1-(4-fluorobenzyl)-N-methoxy-1H-pyrrolo[2,3-c]pyridine-5-carboxamide] | 140 | 801 | 
O=C(NO)c1cc2c(NS(=O)(=O)c3ccc(Cl)s3)cn(Cc3ccc(F)cc3)c2cn1 [Example 21, 3-{[(5-chloro-2-thienyl)sulfonyl]amino}-1-(4-fluorobenzyl)-N-hydroxy-1H-pyrrolo[2,3-c]pyridine-5-carboxamide] |  | 102 | 71
O=C(NO)c1cc2c(S(=O)(=O)NCCN3CCOCC3)cn(Cc3ccc(F)cc3F)c2cn1 [Example 37, 1-(2,4-difluorobenzyl)-N-hydroxy-3-{[(2-morpholin-4-ylethyl)amino]sulfonyl}-1H-pyrrolo[2,3-c]pyridine-5-carboxamide] |  | 161 | 490
CN(O)C(=O)c1cc2c(C(=O)NCCN3CCOCC3)cn(Cc3ccc(F)cc3)c2cn1 [Example 32, 1-(4-fluorobenzyl)-N~5~- hydroxy-N~5~-methyl-N~3~-(2-morpholin-4-ylethyl)-1H-pyrrolo[2,3-c]pyridine-3,5-dicarboxamide] | 210 | 503 | 
CN(O)C(=O)c1cc2c(C(=O)NC(CC(=O)NC3CC3)C3CC3)cn(Cc3ccc(F)cc3)c2cn1 (stereo not drawn) [Example 18, N~3~-[1-cyclopropyl-3-(cyclopropylamino)-3-oxopropyl]-1-(4-fluorobenzyl)-N~5~- hydroxy-N~5~-methyl-1H-pyrrolo[2,3-c]pyridine-3,5-dicarboxamide] | 460 | 230 | 
CONC(=O)c1cc2c(S(=O)(=O)NCCN3CCOCC3)cn(Cc3ccc(F)cc3F)c2cn1 [Example 40, 1-(2,4-difluorobenzyl)-N-methoxy-3-{[(2-morpholin-4-ylethyl)amino]sulfonyl}-1H-pyrrolo[2,3-c]pyridine-5-carboxamide] |  | 760 | 52
O=C(NO)c1cc2c(C(=O)NCCCN3CCCC3=O)cn(Cc3ccc(F)cc3)c2cn1 [Example 29, 1-(4-fluorobenzyl)-N~5~- hydroxy-N~3~-[3-(2-oxopyrrolidin-1-yl)propyl]-1H-pyrrolo[2,3-c]pyridine-3,5-dicarboxamide] | 130 | 70 | 
CN(O)C(=O)c1cc2c(NS(=O)(=O)c3ccccc3)cn(Cc3ccc(F)cc3)c2cn1 [Example 4, 1-(4-fluorobenzyl)-N-hydroxy-N-methyl-3-[(phenylsulfonyl)amino]-1H-pyrrolo[2,3-c]pyridine-5-carboxamide] |  | 360 | 42
